≈ marks a conversion by molar mass, not a printed value.
Assays:
[1] = tested on: C. albicans E81022 strain; experiment: Anti-Candida activity, MIC measurement (broth dilution, visual inspection); type: cell-based; details: C. albicans E81022, RPMI1640, 48 hours at 35° C.; for MIC: Candida albicans, E81022STRAIN, read-out: Anti-Candida activity (minimum growth inhibitory concentration, MIC)
Procedure: (§1) For the C. albicans E81022 strain, a fungal suspension from a standing culture 48 hours at 30° C. in a Sabouraud dextrose liquid culture medium (SDB) was diluted 10000-fold with 1.3-times concentrated RPMI1640 medium to prepare a fungal suspension containing 1 to 2×10^4 cells/ml. For the A. fumigatus Tsukuba strain, −80° C. stored strain was diluted 1000-fold with 1.3-times concentrated RPMI1640 medium to prepare a fungal suspension containing 2 to 3×10^3 cells/ml.
(§2) Using a U-shaped bottomed 96-well plates, 8 samples/plate (A to H) of sample dilution solutions were prepared. On the first row was dispensed 240 μl of sterile distilled water, and on the 2nd to 12th row were dispersed 125 μL of 4% dimethylsulfoxide solution. Weighed sample was dissolved in dimethylsulfoxide to prepare a 5 mg/ml solution followed by adding 10 μL of the solutions to the first row of the prepared plates and preparing 12-step serial 2-fold dilutions (125 μL of solution+125 μL of 4% dimethylsulfoxide solution) on the plates.
(§3) The fungal suspension prepared in (1) was used in the amount of 75 μL/well to inoculate the flat-bottomed 96-well plates containing 25 μL/well of the test compound prepared in (2), and a standing culture was carried out aerobically for 48 hours at 35° C.

[2] = tested on: A. fumigatus Tsukuba strain; experiment: Anti-Aspergillus activity, MIC measurement (broth dilution, visual inspection); type: cell-based; details: RPMI1640, 48 hours at 35° C., read-out: Anti-Aspergillus activity (minimum growth inhibitory concentration, MIC)
Procedure: as §1, §2, §3

2,6-Diamino-N-(6-(2-phenoxy-ethoxy)-benzofuran-2-ylmethyl)-nicotinamide [Example 80]
Anti-Candida activity (minimum growth inhibitory concentration, MIC) [1]: 3.13 µg/mL

CC#CCOc1ccc2cc(CNC(=O)c3ccc(N)nc3N)oc2c1 [Example 8, 2,6-Diamino-N-(6-but-2-ynyloxy-benzofuran-2-ylmethyl)-nicotinamide]
MIC [1]: 1.56 µg/mL (≈ 4.45 µM)

CCCCCOc1ccc2cc(CNC(=O)c3ccc(N)nc3N)oc2c1 [Example 12, 2,6-Diamino-N-(6-pentyloxy-benzofuran-2-ylmethyl)-nicotinamide]
MIC [1]: 0.78 µg/mL (≈ 2.12 µM) | MIC [2]: 1.56 µg/mL (≈ 4.23 µM)

CC(C)COc1ccc2cc(CNC(=O)c3ccc(N)nc3N)oc2c1 [Example 13, 2,6-Diamino-N-(6-isobutoxy-benzofuran-2-ylmethyl)-nicotinamide]
MIC [1]: 0.39 µg/mL (≈ 1.1 µM) | MIC [2]: 1.56 µg/mL (≈ 4.4 µM)

CC(C)CCOc1ccc2cc(CNC(=O)c3ccc(N)nc3N)oc2c1 [Example 14, 2,6-Diamino-N-(6-(3-methyl-butoxy)-benzofuran-2-ylmethyl)-nicotinamide]
MIC [1]: 1.56 µg/mL (≈ 4.23 µM)

CC(C)(C)COc1ccc2cc(CNC(=O)c3ccc(N)nc3N)oc2c1 [Example 16, 2,6-Diamino-N-(6-(2,2-dimethyl-propoxy)-benzofuran-2-ylmethyl)-nicotinamide]
MIC [1]: 3.13 µg/mL (≈ 8.5 µM) | MIC [2]: 6.25 µg/mL (≈ 17 µM)

CC(C)=CCOc1ccc2cc(CNC(=O)c3ccc(N)nc3N)oc2c1 [Example 17, 2,6-Diamino-N-(6-(3-methyl-but-2-enyloxy)-benzofuran-2-ylmethyl)-nicotinamide]
MIC [1]: 0.78 µg/mL (≈ 2.13 µM)

Nc1ccc(C(=O)NCc2cc3ccc(OCc4cccc(F)c4)cc3o2)c(N)n1 [Example 22, 2,6-Diamino-N-(6-(3-fluoro-benzyloxy)-benzofuran-2-ylmethyl)-nicotinamide]
MIC [1]: 0.39 µg/mL (≈ 0.96 µM) | MIC [2]: 1.56 µg/mL (≈ 3.84 µM)

Nc1ccc(C(=O)NCc2cc3ccc(OCc4ccccc4F)cc3o2)c(N)n1 [Example 23, 2,6-Diamino-N-(6-(2-fluoro-benzyloxy)-benzofuran-2-ylmethyl)-nicotinamide]
Anti-Candida activity (minimum growth inhibitory concentration, MIC) [1]: 1.56 µg/mL

CCCCOc1ccc2cc(CNC(=O)c3ccc(COC)nc3N)oc2c1 [Example 25, 2-Amino-N-(6-butoxy-benzofuran-2-ylmethyl)-6-methoxymethyl-nicotinamide]
MIC [1]: 0.78 µg/mL (≈ 2.03 µM)

COCc1ccc(C(=O)NCc2cc3ccc(OCC4CCCCO4)cc3o2)c(N)n1 (stereo not drawn) [Example 33, 2-Amino-6-methoxymethyl-N-(6-(tetrahydro-pyran-2-ylmethoxy)-benzofuran-2-ylmethyl)-nicotinamide]
MIC [1]: 12.5 µg/mL (≈ 29.4 µM)

CCCOc1ccc2cc(CNC(=O)c3ccc(COC)nc3N)oc2c1 [Example 37, 2-Amino-6-methoxymethyl-N-(6-propoxy-benzofuran-2-ylmethyl)-nicotinamide]
MIC [1]: 0.2 µg/mL (≈ 0.541 µM)

CCOCCOc1ccc2cc(CNC(=O)c3ccc(COC)nc3N)oc2c1 [Example 41, 2-Amino-N-(6-(2-ethoxy-ethoxy)-benzofuran-2-ylmethyl)-6-methoxymethyl-nicotinamide]
MIC [1]: 3.13 µg/mL (≈ 7.84 µM)

COCc1ccc(C(=O)NCc2cc3ccc(OCc4ccncc4)cc3o2)c(N)n1 [Example 46, 2-Amino-6-methoxymethyl-N-(6-(pyridin-4-ylmethoxy)-benzofuran-2-ylmethyl)-nicotinamide]
MIC [1]: 0.39 µg/mL (≈ 0.932 µM)

COCc1ccc(C(=O)NCc2cc3ccc(OCC4CC4)cc3[nH]2)c(N)n1 [Example 73, 2-Amino-N-(6-cyclopropylmethoxy-1H-indol-2-ylmethyl)-6-methoxymethyl-nicotinamide]
MIC [2]: 25 µg/mL (≈ 65.7 µM)

COCc1ccc(C(=O)NCc2cc3cc(Br)ccc3o2)c(N)n1 [Example 79, 2-Amino-N-(5-bromo-benzofuran-2-ylmethyl)-6-methoxymethyl-nicotinamide]
MIC [2]: 12.5 µg/mL (≈ 32 µM)

CCOCc1ccc2oc(CNC(=O)c3ccc(COC)nc3N)cc2c1 [Example 81, 2-Amino-N-(5-ethoxymethyl-benzofuran-2-ylmethyl)-6-methoxymethyl-nicotinamide]
MIC [2]: 6.25 µg/mL (≈ 16.9 µM)

Source: patent publication US7829585B2, “Antifungal agent containing pyridine derivative” (Eisai R&D Management Co., Ltd., priority 2005, dated 2010)
